pIC50: −log10 of the molar value. Structures can show the parent of a compound that is named as a salt.

Chain of IRAK4 (Q9NWZ3 whole entry): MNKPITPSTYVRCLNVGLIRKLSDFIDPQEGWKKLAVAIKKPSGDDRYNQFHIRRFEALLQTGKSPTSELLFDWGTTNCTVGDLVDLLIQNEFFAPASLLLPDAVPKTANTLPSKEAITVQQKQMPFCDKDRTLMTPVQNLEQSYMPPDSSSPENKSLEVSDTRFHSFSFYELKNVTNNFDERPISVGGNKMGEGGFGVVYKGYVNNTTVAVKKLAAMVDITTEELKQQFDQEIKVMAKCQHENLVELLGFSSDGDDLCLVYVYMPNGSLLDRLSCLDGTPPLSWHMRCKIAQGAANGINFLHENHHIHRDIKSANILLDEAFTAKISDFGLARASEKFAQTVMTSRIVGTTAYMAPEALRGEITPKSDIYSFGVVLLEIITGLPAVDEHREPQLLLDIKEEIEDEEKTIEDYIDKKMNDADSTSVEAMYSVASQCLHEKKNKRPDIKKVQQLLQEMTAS

The test addresses IRAK4 (Homo sapiens (Human), UniProt Q9NWZ3). The experiment in a line: IRAK4 Kinase Assay. The settings on record: IMAP fluorescence polarization, 0.5 nM GST tagged IRAK4, 100 μM ATP, 30 minutes at 25° C.; read-out: IRAK4 IC50. The class given is biochemical. On the technique in general: In fluorescence polarisation assays a small probe gives low polarisation when free and higher when bound to something large.
The pIC50 is the IC50 on a negative log10 scale, so that one unit is a factor of ten. Regarding `Cn1cc(NC(=O)c2cnn3ccc(N4C[C@H]5CN[C@H](C5)C4)nc23)c(C(F)(F)F)n1` (single isomer, unassigned) [Example 225, 5-[(1S,5S)- or (1R,5R)-3,6-diazabicyclo[3.2.1]oct-3-yl]-N-[1-methyl-3-(trifluoromethyl)-1H-pyrazol-4-yl]pyrazolo[1,5-a]pyrimidine-3-carboxamide], the pIC50 was 6.51.
With `Cn1cc(NC(=O)c2cnn3ccc(N[C@@H]4CNCC(F)(F)C4)nc23)c(C(F)F)n1` (single isomer, unassigned) [Example 228, N-[3-(difluoromethyl)-1-methyl-1H-pyrazol-4-yl]-5-{[(3S)- or (3R)-5,5-difluoropiperidin-3-yl]amino}pyrazolo[1,5-a]pyrimidine-3-carboxamide] the figure was 7.23; with `Cn1cc(NC(=O)c2cnn3ccc(N[C@@H]4CNCC[C@@H]4F)nc23)c(C(F)(F)F)n1` (single isomer, unassigned) [Example 230, 5-{[(3R,4S)- or (3S,4R)-4-fluoropiperidin-3-yl]amino}-N-[1-methyl-3-(trifluoromethyl)-1H-pyrazol-4-yl]pyrazolo[1,5-a]pyrimidine-3-carboxamide], 9.30; with `Cn1cc(NC(=O)c2cnn3ccc(N[C@H]4CNCC[C@H]4F)nc23)c(C(F)(F)F)n1` (single isomer, unassigned) [Example 231, 5-{[(3R,4S)- or (3S,4R)-4-fluoropiperidin-3-yl]amino}-N-[1-methyl-3-(trifluoromethyl)-1H-pyrazol-4-yl]pyrazolo[1,5-a]pyrimidine-3-carboxamide], 7.33.
As for `Cn1cc(NC(=O)c2cnn3ccc(N[C@@H]4CNCC[C@H]4F)nc23)c(C(F)(F)F)n1` (single isomer, unassigned) [Example 232, 5-{[(3R,4R)- or (3S,4S)-4-fluoropiperidin-3-yl]amino}-N-[1-methyl-3-(trifluoromethyl)-1H-pyrazol-4-yl]pyrazolo[1,5-a]pyrimidine-3-carboxamide], the figure is 7.89; as for `Cn1cc(NC(=O)c2cnn3ccc(N[C@H]4CNCC[C@@H]4F)nc23)c(C(F)(F)F)n1` (single isomer, unassigned) [Example 233, 5-{[(3R,4R)- or (3S,4S)-4-fluoropiperidin-3-yl]amino}-N-[1-methyl-3-(trifluoromethyl)-1H-pyrazol-4-yl]pyrazolo[1,5-a]pyrimidine-3-carboxamide], 9.30; as for `Cn1cc(NC(=O)c2cnn3ccc(NC4CNCCC4F)nc23)c(C(F)F)n1` (single isomer, unassigned) [Example 234, N-[3-(difluoromethyl)-1-methyl-1H-pyrazol-4-yl]-5-[(3R or S, 4R or S-4-fluoropiperidin-3-yl)amino]pyrazolo[1,5-a]pyrimidine-3-carboxamide], 8.30.
As for `Cn1cc(NC(=O)c2cnn3ccc(N[C@H]4CNCC(F)(F)C4)nc23)c(C(F)F)n1` (single isomer, unassigned) [Example 235, N-[3-(difluoromethyl)-1-methyl-1H-pyrazol-4-yl]-5-{[(3S)- or (3R)-5,5-difluoropiperidin-3-yl]amino}pyrazolo[1,5-a]pyrimidine-3-carboxamide], the figure is 9.15; as for `Cn1cc(NC(=O)c2cnn3ccc(NC4CNCCC4F)nc23)c(C(F)F)n1` (single isomer, unassigned) [Example 236, N-[3-(difluoromethyl)-1-methyl-1H-pyrazol-4-yl]-5-[(3R or S, 4R or S-4-fluoropiperidin-3-yl)amino]pyrazolo[1,5-a]pyrimidine-3-carboxamide], 9.22.
On to `Cn1cc(NC(=O)c2cnn3ccc(NC4CNCCC4F)nc23)c(C(F)F)n1` (single isomer, unassigned) [Example 237, N-[3-(difluoromethyl)-1-methyl-1H-pyrazol-4-yl]-5-[(3R or S, 4R or S-4-fluoropiperidin-3-yl)amino]pyrazolo[1,5-a]pyrimidine-3-carboxamide], for which the pIC50 is 9.22.
As for `Cn1cc(NC(=O)c2cnn3ccc(N4C[C@@H]5CNC[C@H]4C5)nc23)c(C(F)F)n1` (single isomer, unassigned) [Example 239, 5-[(1S,5R)- or (1R,5S)-3,6-diazabicyclo[3.2.1]oct-6-yl]-N-[3-(difluoromethyl)-1-methyl-1H-pyrazol-4-yl]pyrazolo[1,5-a]pyrimidine-3-carboxamide], the figure is 8.52; as for `Cn1cc(NC(=O)c2cnn3ccc(N4C[C@H]5CNC[C@@H]4C5)nc23)c(C(F)F)n1` (single isomer, unassigned) [Example 240, 5-[(1S,5R)- or (1R,5S)-3,6-diazabicyclo[3.2.1]oct-6-yl]-N-[3-(difluoromethyl)-1-methyl-1H-pyrazol-4-yl]pyrazolo[1,5-a]pyrimidine-3-carboxamide], 7.37; as for `Cn1cc(NC(=O)c2cnn3ccc(NC4CNCCC4F)nc23)c(C(F)F)n1` (single isomer, unassigned) [Example 241, N-[3-(difluoromethyl)-1-methyl-1H-pyrazol-4-yl]-5-[(3R or S, 4R or S-4-fluoropiperidin-3-yl)amino]pyrazolo[1,5-a]pyrimidine-3-carboxamide], 8.52.
As for `Cn1cc(NC(=O)c2cnn3ccc(N[C@H]4CNCCC4(F)F)nc23)c(C(F)F)n1` (single isomer, unassigned) [Example 242, N-[(R or S)-3-(difluoromethyl)-1-methyl-1H-pyrazol-4-yl]-5-[(4,4-difluoropiperidin-3-yl)amino]pyrazolo[1,5-a]pyrimidine-3-carboxamide trifluoroacetate], the figure is 8.70.
As for `Cn1cc(NC(=O)c2cnn3ccc(N[C@H]4CNCCC4(F)F)nc23)c(C(F)(F)F)n1` (single isomer, unassigned) [Example 243, 5-[(R or S)-(4,4-difluoropiperidin-3-yl)amino]-N-[1-methyl-3-(trifluoromethyl)-1H-pyrazol-4-yl]pyrazolo[1,5-a]pyrimidine-3-carboxamide trifluoroacetate], the figure is 9.30; as for `Cn1cc(NC(=O)c2cnn3ccc(N[C@H]4CNCCC4(F)F)nc23)c(C(F)F)n1` (single isomer, unassigned) [Example 244, N-[(R or S)-3-(difluoromethyl)-1-methyl-1H-pyrazol-4-yl]-5-[(4,4-difluoropiperidin-3-yl)amino]pyrazolo[1,5-a]pyrimidine-3-carboxamide trifluoroacetate], 9.30.
`Cn1cc(NC(=O)c2cnn3ccc(N[C@H]4CNCCC4(F)F)nc23)c(C(F)(F)F)n1` (single isomer, unassigned) [Example 245, 5-[(R or S)-(4,4-difluoropiperidin-3-yl)amino]-N-[1-methyl-3-(trifluoromethyl)-1H-pyrazol-4-yl]pyrazolo[1,5-a]pyrimidine-3-carboxamide trifluoroacetate]: the pIC50 is 8.10.
On to `Cn1cc(NC(=O)c2cnn3ccc(NC4CCCCC4)nc23)cn1` [Example 3, 5-(cyclohexylamino)-N-(1-methyl-1H-pyrazol-4-yl)pyrazolo[1,5-a]pyrimidine-3-carboxamide trifluoroacetate], for which the pIC50 is 6.63.
As for `Cn1cc(NC(=O)c2cnn3ccc(N4CCN(CC5CC5)CC4)nc23)c(C(F)(F)F)n1` [Example 6, 5-[4-(cyclopropylmethyl)piperazin-1-yl]-N-[1-methyl-3-(trifluoromethyl)-1H-pyrazol-4-yl]pyrazolo[1,5-a]pyrimidine-3-carboxamide], the figure is 6.17; as for `Cn1cc(NC(=O)c2cnn3ccc(NC4CCNCC4)nc23)c(C(F)(F)F)n1` [Example 7, N-[1-methyl-3-(trifluoromethyl)-1H-pyrazol-4-yl]-5-(piperidin-4-ylamino)pyrazolo[1,5-a]pyrimidine-3-carboxamide trifluoroacetate], 7.41; as for `Cn1cc(NC(=O)c2cnn3ccc(N4CCCNCC4)nc23)c(C(F)(F)F)n1` [Example 8, 5-(1,4-diazepan-1-yl)-N-[1-methyl-3-(trifluoromethyl)-1H-pyrazol-4-yl]pyrazolo[1,5-a]pyrimidine-3-carboxamide trifluoroacetate], 7.18.
As for `Cn1cc(NC(=O)c2cnn3ccc(N[C@@H]4CCCNC4)nc23)c(C(F)(F)F)n1` [Example 9, N-[1-methyl-3-(trifluoromethyl)-1H-pyrazol-4-yl]-5-[(3R)-piperidin-3-ylamino]pyrazolo[1,5-a]pyrimidine-3-carboxamide trifluoroacetate], the figure is 9.30; as for `CCN1CCCN(c2ccn3ncc(C(=O)Nc4cn(C)nc4C(F)(F)F)c3n2)CC1` [Example 10, 5-(4-ethyl-1,4-diazepan-1-yl)-N-[1-methyl-3-(trifluoromethyl)-1H-pyrazol-4-yl]pyrazolo[1,5-a]pyrimidine-3-carboxamide], 5.96.
As for `Cn1cc(NC(=O)c2cnn3ccc(N4CC5CCC4CN5)nc23)c(C(F)(F)F)n1` (stereo not drawn) [Example 11, 5-(2,5-diazabicyclo[2.2.2]oct-2-yl)-N-[1-methyl-3-(trifluoromethyl)-1H-pyrazol-4-yl]pyrazolo[1,5-a]pyrimidine-3-carboxamide hydrochloride], the figure is 7.55; as for `Cn1cc(NC(=O)c2cnn3ccc(NC4CCCCNC4)nc23)c(C(F)(F)F)n1` (stereo not drawn) [Example 12, 5-(azepan-3-ylamino)-N-[1-methyl-3-(trifluoromethyl)-1H-pyrazol-4-yl]pyrazolo[1,5-a]pyrimidine-3-carboxamide hydrochloride], 8.22; as for `Cn1cc(NC(=O)c2cnn3ccc(N4CC5CC4CN5)nc23)c(C(F)(F)F)n1` (stereo not drawn) [Example 13, 5-(2,5-diazabicyclo[2.2.1]hept-2-yl)-N-[1-methyl-3-(trifluoromethyl)-1H-pyrazol-4-yl]pyrazolo[1,5-a]pyrimidine-3-carboxamide hydrochloride], 6.75.
As to `Cn1cc(NC(=O)c2cnn3ccc(N4CCNCC5(CC5)C4)nc23)c(C(F)(F)F)n1` [Example 14, 5-(5,8-diazaspiro[2.6]non-5-yl)-N-[1-methyl-3-(trifluoromethyl)-1H-pyrazol-4-yl]pyrazolo[1,5-15a]pyrimidine-3-carboxamide trifluoroacetate], the negative logarithm of the IC50 (pIC50) was 7.80.

The values are drawn from US10329294B2, “Pyrazolopyrimidine inhibitors of IRAK4 activity” (MERCK SHARP & DOHME CORP., priority 2015, dated 2019).
